# According to patent US5322850A, “Antiallergic piperidine derivatives of benzimidazole” (Fabrica Espanola de Productos Quimicos y Farmaceuticos, S.A., priority 1992, dated 1994):
# Several values for one entry are separate records, joined by “and”; a condition that tells them apart may be missing. Equal values may be shown once.
# Assays:
# H1 [1] = target: H1 (Cavia porcellus, UniProt P31389); test: H1-antihistaminic activity in vitro: histamine-induced contractions of isolated guinea-pig ileum; conditions: pH 7.4, 37° C., 20 min after antagonist, (n) given
# Chain of H1 (Cavia porcellus, UniProt P31389) (P31389 whole entry): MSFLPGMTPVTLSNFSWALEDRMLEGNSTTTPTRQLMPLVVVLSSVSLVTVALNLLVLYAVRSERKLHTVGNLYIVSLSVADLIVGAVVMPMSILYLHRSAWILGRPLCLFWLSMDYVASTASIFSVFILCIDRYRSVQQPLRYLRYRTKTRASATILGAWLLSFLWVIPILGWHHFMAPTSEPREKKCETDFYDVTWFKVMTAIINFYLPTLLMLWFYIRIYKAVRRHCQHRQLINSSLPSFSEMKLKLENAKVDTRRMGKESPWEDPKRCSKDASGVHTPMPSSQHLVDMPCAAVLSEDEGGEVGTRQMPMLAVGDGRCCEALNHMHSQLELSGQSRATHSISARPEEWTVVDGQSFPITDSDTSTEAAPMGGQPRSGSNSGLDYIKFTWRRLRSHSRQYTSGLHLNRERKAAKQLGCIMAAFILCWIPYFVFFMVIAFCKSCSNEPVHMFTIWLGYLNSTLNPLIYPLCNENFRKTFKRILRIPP
# Procedure: H1 -antihistaminic activity in vitro: Histamine-induced contractions of isolated guinea-pig ileum.
# Distal ileum was obtained from male albino guinea pig (300-500 g). All animals were fasted overnight and killed by cervical dislocation and then exsanguinated. […] The tissue was washed by upward displacement of the bathing fluid. With an effective 1.2 g loading tension, the ileum was kept for 45 min (stabilization period). An accumulative dose-response curve for histamine was isotonically recorded with increasing concentrations and the tissue, after washing with Tyrode solution, was allowed to equilibrate. Twenty minutes later a second concentration-response curve was obtained previous addition of different concentrations of antagonist drugs. The results were calculated from the concentration-response curves for histamine at each drug concentration. All the concentrations were tested 2 to 4 times.
# [2] = tested on: homologous passive cutaneous anaphylaxis (PCA); test: Antiallergic activity in vivo: vascular permeability increase induced by 48 hours homologous passive cutaneous anaphylaxis (PCA) in rats; parameters: species or system rat (female Wistar)
# Procedure: Antiallergic activity in vivo: Vascular permeability increase induced by 48 hours homologous passive cutaneous anaphylaxis (PCA) in rats. Female Wistar rats (120-150 g) were used. They were sensitized passively by intradermic injections of homologous ovoalbumin antiserum on both sides of the middle shaved-back line of the rat. Forty-eight hours later each test compound was administered orally at doses of 1 mg/kg (5 mg/kg when R^1 is a methyl group) and 1 h later PCA reaction was induced by iv injection of Evans blue solution and ovoalbumin in PSS solution. The animals were sacrificed 30 minutes after the dye injection and the skin was removed. The extravasated dye sites were extracted with formamide and the dye spectrophotometrically evaluated.
# H1 [3] = test: H1-antihistaminic activity in vivo: vascular permeability increase induced by histamine in rats; parameters: species or system rat (female Wistar)
# Procedure: H1 -antihistaminic activity in vivo: Vascular permeability increase induced by histamine in rats.
# Female Wistar rats (120-150 g) were used. They were fasted for 18 hours prior to the assay. […] 30 min after the dye injection, animals were sacrificed and the skin was removed. The extravasated dye sites were extracted with formamide and the dye spectrophotometrically evaluated.
# CNS = test: Preliminary study similar to Irwin's test in mice: effect on CNS; assay type: in vivo; parameters: key: --: If no effects were detected, no figures are shown
# Procedure: A preliminary study similar to Irwins's test in mice was carried out at doses of 100 and 300 mg/kg at 1, 2, 3, 4 and 24 hours after the treatment. As reference ketotifene was used.
# [4] = rat, oral, 1 mg/kg, 1 h before PCA reaction
# [5] = rat, oral, 1 mg/kg, 1 hour before histamine
# [6] = 100 mg/kg, 1, 2, 3, 4 and 24 hours
# [7] = 300 mg/kg, 1, 2, 3, 4 and 24 hours
Compound,pD'2 (H1 [1]),"Inhibition of the increase of vascular permeability by P.C.A. [2, 4] [%]",Inhibition of the increase of vascular permeability by Histamine (H1 [3]; [5]) [%],Convulsions (CNS; [6]),Death (CNS; [6]),Hypothermia (CNS; [6]),Loss of pinneal reflex (CNS; [6]),Loss of right-time reflex (CNS; [6]),Palpebral Ptosis (CNS; [6]),Spontaneous Activity decrease (CNS; [6]),Convulsions (CNS; [7]),Death (CNS; [7]),Hypothermia (CNS; [7]),Loss of pinneal reflex (CNS; [7]),Loss of right-time reflex (CNS; [7]),Palpebral Ptosis (CNS; [7]),Spontaneous Activity decrease (CNS; [7]),"Inhibition of the increase of vascular permeability by P.C.A. ([2]; po, 5 mg/kg) [%]","Inhibition of the increase of vascular permeability by Histamine (H1 [3]; po, 5 mg/kg) [%]","Spontaneous Activity decrease (CNS; 300 mg/kg, 1, 2, 3, 4 and 24 hours, 300 mg/kg)"
CCOCCn1c(C2CCN(Cc3ccc(C(C)(C)C)cc3)CC2)nc2ccccc21 [1 CH2 CH3],7.08,47,70,--,--,--,--,--,--,--,4/4,--,--,--,--,--,4/4,,,
"COCCn1c(C2CCN(Cc3ccc(C(C)(C)C)cc3)CC2)nc2ccccc21 [1 CH3, 2-[1-((4-(1,1-dimethylethyl)phenyl)methyl)piperidine-4-yl]-1-(2-methoxyethyl)-1H-benzimidazole]",6.75,,,--,--,2/4,--,--,--,3/4,4/4,4/4,4/4,4/4,4/4,4/4,4/4,70,70,
"CC(C)OCCn1c(C2CCN(Cc3ccc(C(C)(C)C)cc3)CC2)nc2ccccc21 [1 CH(CH3)2, 2-[1-((4-(1,1-dimethylethyl)phenyl)methyl)piperidin-4-yl]-1-[(2-(1-methylethoxy)ethyl)]-1H-benzimidazole]",7.30,40,50,--,--,--,--,--,--,--,--,--,--,--,--,--,--,,,
"CCOCCn1c(C2CCN(CCc3ccc(C(C)(C)C)cc3)CC2)nc2ccccc21 [2 CH2 CH3, 2-[1-(2-(4-(1,1-dimethylethyl)-phenyl)ethyl)piperidin-4-yl]-1-(2-ethoxyethyl)-1H-benzimidazole]",7.52,40,60,--,--,--,--,--,--,--,--,--,--,--,--,--,,,,-- and 2/4
"CC(C)OCCn1c(C2CCN(CCc3ccc(C(C)(C)C)cc3)CC2)nc2ccccc21 [2 CH(CH3)2, 2-[1-(2-(4-(1,1-dimethylethyl)-phenyl)ethyl)piperidin-4-yl]-1-[2-(1-methylethoxy)ethyl]-1H-benzimidazole]",7.00,30,25,,,,,,,,,,,,,,,,,
"COc1ccc(CCN2CCC(Nc3nc4ccccc4n3Cc3ccc(F)cc3)CC2)cc1 [Astemizole, reference compound]",,38,,,,,,,,,,,,,,,,,,
"CN1CCC(=C2c3ccccc3CC(=O)c3sccc32)CC1 [Ketotifene, reference compound]",,,,--,--,--,--,--,--,--,--,--,1/4,--,1/4,1/4,2/4,,,
"CC(C)(C)c1ccc(C(O)CCCN2CCC(C(O)(c3ccccc3)c3ccccc3)CC2)cc1 (stereo not shown) [Terfenadine, reference compound]",,37,20,,,,,,,,,,,,,,,,,
